Experimental data from US20010007016A1, “PEPTIDE DERIVATIVES” (priority 1994, published 2001).

Experiments:
Mice [1] = assay: Analgesic activity by pressure stimulation method, Method A (UGO BASILE analgesy meter Model 7,200, tail pressure in grams); assay type: in vivo; conditions: for ED50: Mus musculus, read-out: ED50 (dose that induced 50 percent of % of MPE)
Method: (§1) The analgesic activities of the peptide derivatives of the present invention were evaluated by the pressure stimulation method using one of two devices. In method A, analgesy meter Model 7,200 manufactured by UGO BASILE (Comerio, Italy) was used (units of tail pressure expressed in grams). In method B, an apparatus made by inventor Professor S. Sakurada was used (units of tail pressure expressed in mmHg). Mice were subjected to pressure stimulation at the bases of their tails at a given rate(Method A: 32 g/s; Method B: 10 mmHg/second). […] For the experiments, mice that normally responded to a given pressure of 100-200 g (Method A) or 40-50 mmHg (Method B) were used. The maximum stimulating pressure was 500 g (Method A) or 100 mmHg (Method B). Analgesic activity was calculated as percent of maximum possible effect (% of MPE) according to the equation: [formula]
(§2) Wherein Po is the pain reaction threshold before the administration of a drug; Pt is the pain reaction threshold “t” minutes after the administration of the drug; and Pc is the maximum stimulating pressure. ED5 0 values were calculated based on dose response curves as doses that induced 50 percent of % of MPE and analgesic activities of the drugs were compared. The results obtained from subcutaneous administration (s.c.; skin on the backs of the mice was used) and oral administration (p.o.) are shown in Table 3.

Mice [2] = assay: Analgesic activity by pressure stimulation method, Method B (apparatus made by Professor S. Sakurada, tail pressure in mmHg); assay type: in vivo; conditions: for ED50: Mus musculus, read-out: ED50 (dose that induced 50 percent of % of MPE)
Method: as §1, §2

Compound	ED50 (dose that induced 50 percent of % of MPE) (Mice [1]; p.o.) [mg/kg]	ED50 (dose that induced 50 percent of % of MPE) (Mice [1]; s.c.) [mg/kg]	ED50 (dose that induced 50 percent of % of MPE) (Mice [2]; s.c.) [mg/kg]	other results
CN1CC[C@]23c4c5ccc(O)c4O[C@H]2[C@@H](O)C=C[C@H]3[C@H]1C5 [morphine, reference compound]				ED50 (Mice [1]; po): 22.2 mg/kg; ED50 (Mice [1]; sc): 3.3 mg/kg; ED50 (Mice [2]; po): 29.6 mg/kg; ED50 (Mice [2]; sc): 4.6 mg/kg
H2NC(NH)-Tyr-D-Arg-Phe-N(CH3)CH2CH2COOH	5.8	0.09		
H2NC(NH)-Tyr-D-Arg-Phe-N(CH3)CH2COHN2			0.27	
H2NC(NH)-Tyr-D-Arg-Phe-N(CH3)CH2COOH			0.13	ED50 (dose that induced 50 percent of % of MPE) (Mice [2]; p.o.): 4.9 mg/kg
H2NC(NH)-Tyr-D-Arg-Phe-N(Me)2			1.22	
H2NC(NH)-Tyr-D-Arg-Phe-NHCH2CH2COOH	18.5	0.32		
